According to patent publication US20020051978A1, “Methods and compositions for the identification, assessment, prevention and therapy of human cancers” (priority 2000, published 2002):
Like-named read-outs stand apart in the source and are kept apart here.

Experiments:
[1] = test system: 60 cancer cell lines (NCI 60 cancer cell line series); experiment: NCI-DTP in vitro cancer screen, sulforhodamine B (SRB) growth inhibition, 48 hour exposure; type: cell-based, human; design: key to sensitivity class Ovarian OVCAR-8 CL6005 / sensitivity class Ovarian SK-OV-3 CL6011 / sensitivity class Prostate DU-145 CL11003 / sensitivity class NSCLC NCI-H522 CL1003 / sensitivity class Ovarian IGROV1 CL6010 / sensitivity class Ovarian OVCAR-4 CL6002 / sensitivity class Prostate PC-3(I) CL11001 / sensitivity class Renal A498 CL9013 / sensitivity class Renal SN12C CL9008: sensitivity class: 1 = Low, 2 = Medium, 3 = High
How it was run: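 Values come from the NCI-DTP screen database: -log GI50, the concentration giving 50% growth inhibition, derived from SRB cell-mass dose-response curves. Each line seeded at its own density, treated day 1 at five ten-fold-spaced doses in duplicate wells, stained after 48 h.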

[2] = test system: 60 cancer cell lines (NCI 60 cancer cell line series); conditions: cited from earlier work

Structure (SMILES): N.N.[Cl][Pt][Cl] [cisplatin, cis-Diamminedichloroplatinum (II), reference compound]
- classification of cell line as Low(1), Medium(2) or High(3) sensitivity to compound ([1]; Breast BT-549 (CL5013)): 2
- classification of cell line as Low(1), Medium(2) or High(3) sensitivity to compound ([1]; Breast HS-578T CL5006): 2
- classification of cell line as Low(1), Medium(2) or High(3) sensitivity to compound ([1]; Breast MCF7/ADRr (CL5002)): 2
- classification of cell line as Low(1), Medium(2) or High(3) sensitivity to compound ([1]; Breast MDA-MB-231 CL5005): 1
- classification of cell line as Low(1), Medium(2) or High(3) sensitivity to compound ([1]; Breast MDA-N CL5012): 2
- classification of cell line as Low(1), Medium(2) or High(3) sensitivity to compound ([1]; Breast T-47D (CL5014)): 1
- classification of cell line as Low(1), Medium(2) or High(3) sensitivity to compound ([1]; CNS SF-268 CL12014): 3
- classification of cell line as Low(1), Medium(2) or High(3) sensitivity to compound ([1]; CNS SF-539 CL12016): 2
- classification of cell line as Low(1), Medium(2) or High(3) sensitivity to compound ([1]; CNS SNB-75(I) CL12005): 2
- classification of cell line as Low(1), Medium(2) or High(3) sensitivity to compound ([1]; CNS U251(I) CL12009): 2
- classification of cell line as Low(1), Medium(2) or High(3) sensitivity to compound ([1]; Colon COLO-250 CL4010): 1
- classification of cell line as Low(1), Medium(2) or High(3) sensitivity to compound ([1]; Colon HCC-2998 (CL4002)): 2
- classification of cell line as Low(1), Medium(2) or High(3) sensitivity to compound ([1]; Colon HCT-15 CL4015): 1
- classification of cell line as Low(1), Medium(2) or High(3) sensitivity to compound ([1]; Colon HT29(I) CL4001): 1
- classification of cell line as Low(1), Medium(2) or High(3) sensitivity to compound ([1]; Colon SW-620 (CL4009)): 2
- classification of cell line as Low(1), Medium(2) or High(3) sensitivity to compound ([1]; Leukemia HL-60(I) (CL7008)): 3
- classification of cell line as Low(1), Medium(2) or High(3) sensitivity to compound ([1]; Leukemia K562(I) CL7005): 2
- classification of cell line as Low(1), Medium(2) or High(3) sensitivity to compound ([1]; Leukemia RPMI-8226(I) (CL7010)): 2
- classification of cell line as Low(1), Medium(2) or High(3) sensitivity to compound ([1]; Melanoma LOX IMVI CL10001): 3
- classification of cell line as Low(1), Medium(2) or High(3) sensitivity to compound ([1]; Melanoma M14 (CL10014)): 2
- sensitivity class NSCLC NCI-H23(I) CL1001 ([1]; cell line NSCLC NCI-H23(I), CL1001): 3
- sensitivity class NSCLC NCI-H460 CL1021 ([1]; cell line NSCLC NCI-H460, CL1021): 3
- sensitivity class NSCLC NCI-H522 CL1003 ([1]; cell line NSCLC NCI-H522, CL1003): 2
- sensitivity class Ovarian IGROV1 CL6010 ([1]; cell line Ovarian IGROV1, CL6010): 2
- sensitivity class Ovarian OVCAR-4 CL6002 ([1]; cell line Ovarian OVCAR-4, CL6002): 2
- sensitivity class Ovarian OVCAR-5 CL6003 ([1]; cell line Ovarian OVCAR-5, CL6003): 2
- sensitivity class Ovarian OVCAR-8 CL6005 ([1]; cell line Ovarian OVCAR-8, CL6005): 2
- sensitivity class Prostate DU-145 CL11003 ([1]; cell line Prostate DU-145, CL11003): 2
- sensitivity class Renal A498 CL9013 ([1]; cell line Renal A498, CL9013): 1
- sensitivity class Renal RXF-393 CL9016 ([1]; cell line Renal RXF-393, CL9016): 2
- sensitivity class Renal UO-31 CL9004 ([1]; cell line Renal UO-31, CL9004): 2
- -Log (GI50) ([2]; Breast MCF7(I) (CL5001)): 5.5
- -Log (GI50) ([2]; Ovarian SK-OV-3 CL6011): 5.2
